Consider 18 molecules from patent US20130109721A1, “FAAH Inhibitors” (Ironwood Pharmaceuticals, Inc., priority 2009, published 2013).

SMILES strings stand for the structures.

The test deals with T1, FAAH (Homo sapiens, UniProt O00519).
T1 construct: FAAH activity was assayed in the respective homogenates described herein (Rat brain, Mouse brain or Human brain); tissue Analytical Biological Services (ABS), Inc; host or cells: human brain cortex membrane homogenate
T1 sequence (O00519 1-579): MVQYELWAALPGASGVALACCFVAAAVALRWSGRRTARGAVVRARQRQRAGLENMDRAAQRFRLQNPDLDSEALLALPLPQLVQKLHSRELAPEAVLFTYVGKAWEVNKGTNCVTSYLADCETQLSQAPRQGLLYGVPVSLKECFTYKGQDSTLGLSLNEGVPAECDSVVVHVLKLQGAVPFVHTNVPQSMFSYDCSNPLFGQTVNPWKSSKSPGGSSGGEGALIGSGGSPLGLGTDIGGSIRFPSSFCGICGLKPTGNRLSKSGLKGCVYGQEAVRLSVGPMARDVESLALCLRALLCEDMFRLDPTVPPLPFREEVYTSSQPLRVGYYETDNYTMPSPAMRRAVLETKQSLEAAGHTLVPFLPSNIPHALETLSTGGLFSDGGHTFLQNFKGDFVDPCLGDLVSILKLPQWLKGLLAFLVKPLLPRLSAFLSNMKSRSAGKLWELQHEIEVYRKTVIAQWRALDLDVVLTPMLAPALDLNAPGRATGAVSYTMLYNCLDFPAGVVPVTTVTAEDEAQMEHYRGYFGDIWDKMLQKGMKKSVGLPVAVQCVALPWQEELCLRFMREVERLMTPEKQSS
The test can be described thus: FAAH inhibition, human brain membrane homogenate assay. In kind it is biochemical. Conditions: average; FAAH extracted from human brain homogenate; read-out: Human brain FAAH Extract IC50. How it is done: About 10 g of frozen normal human brain cortex tissue was obtained (e.g., from Analytical Biological Services (ABS), Inc. (Wilmington, Del.)). The brain tissue was thawed and transferred to a large ceramic mortar on ice. 50 mL of ice-cold “homogenization buffer” (20 mM HEPES buffer, pH 7.0, with 1 mM MgCl2) was added to the mortar and the tissue was homogenized with a pestle. The homogenate was centrifuged at 36,500 g for 20 minutes at 4° C. The supernatants were discarded and the pellets were re-suspended in homogenization buffer and centrifuged as before. The supernatants were again discarded and the pellets were re-suspended in 30 mL homogenization buffer and incubated in a 37° C. water bath for 20 minutes. The homogenate was then centrifuged as before. The supernatant was discarded and the membrane pellets were re-suspended in 30 mL “resuspension buffer” (50 mM Tris-HCl buffer, pH 7.4, containing 1 mM EDTA and 3 mM MgCl2). A Bradford Protein assay was performed to determine protein concentration. The protein was aliquotted into screw cap Cryo tubes each containing ˜200 μL, flash frozen in liquid nitrogen and stored at −80° C. until used for the assay.
FAAH activity was assayed in the respective homogenates described herein (Rat brain, Mouse brain or Human brain) for certain exemplary substrate compounds using a modification of the method of Omeir et al. (1995 Life Sci 56:1999) and Fowler et al. (1997 J. Pharmacol Exp Ther 283:729). For assay of FAAH activity in rat brain membrane (RBM) homogenates, RBM homogenates (7 μg protein in 20 μL final volume of 10 mM Tris pH 6.5) were mixed with 180 μL of a mixture of the following: 2.0 μM unlabelled anandamide, 0.03 μCi radio labeled anandamide [ethanolamine 1-^3H] (40-60 Cis/mmol, product number ART-626, American Radiolabeled Chemicals, St. Louis, Mo.), 1 mg/mL Bovine Serum Albumin (fatty acid-free BSA, electrophoresis grade, Sigma, St. Louis, Mo.), 10 mM Tris-HCl (pH 6.5), and 1 mM EDTA in the presence and absence of test compounds (vehicle was DMSO at a final concentration of 1%) and incubated for 10 minutes at 37° C. Samples were placed on ice to terminate the reactions.
^3H-ethanolamine product and un-reacted ^3H-anandamide substrate were then separated either: (1) by using chloroform/methanol extraction or (2) by passing the reaction mixture through a glass fiber filter containing activated charcoal. Samples were extracted with chloroform/methanol by adding 0.4 mL of chloroform/methanol (1:1 v/v), vigorously mixing the samples, and separating the aqueous and organic phases by centrifugation. Radioactivity (corresponding to FAAH-catalyzed breakdown of ^3H-anandamide) found in aliquots (0.2 mL) of the aqueous phase was determined by liquid scintillation counting with quench correction. IC50 values were determined as described by Jonsson et al. (2001 Br. J. Pharmacol. 133:1263). Alternatively, reactions were purified using a modification of the solid-phase extraction method described by Wilson et al (2003 Anal. Biochem. 318:270). This method was modified as follows: after reactions were incubated at 37° C. for 10 minutes and chilled on ice, the reaction mixtures were acidified by adding 10 μL of sodium phosphate solution [0.5M (pH 2.0)]. Next, 90 μL aliquots of the acidified reaction mixtures were applied to activated charcoal (that had been previously washed with methanol as described by Wilson et al. (supra)) containing 80 μL of water on top of a glass fiber filter, centrifuged, and the radioactivity in the eluate was counted as described previously by Wilson et al. (supra).
Table 1 provides activity data for certain compounds tested for inhibition of FAAH using the FAAH rat, mouse and human brain homogenate assays. […]
Take `COc1cc(NC(=O)C(=O)c2c(C)n(Cc3ccc(Cl)cc3)c3sccc23)ccn1` [Compound I-09, 2-(6-(4-chlorobenzyl)-5-methyl-6H-thieno[2,3-b]pyrrol-4-yl)-N-(2-methoxypyridin-4-yl)-2-oxoacetamide]: the IC50 (as a rule, the concentration that inhibits the measured activity by half) came out at 31 nM. With `COc1ccc(Cn2c(C)cc(C(=O)C(=O)Nc3ccnc(OC)c3)c2C)cc1` [Compound I-22, 2-(1-(4-methoxybenzyl)-2,5-dimethyl-1H-pyrrol-3-yl)-N-(2-methoxypyridin-4-yl)-2-oxoacetamide] the figure was 4110 nM.

Turning to `Cc1c(C(=O)C(=O)Nc2cccc(Cl)c2)c2c(n1Cc1ccc(Cl)cc1)CCC(C)(C)C2` [Compound I-14, 2-(1-(4-chlorobenzyl)-2,5,5-trimethyl-4,5,6,7-tetrahydro-1H-indol-3-yl)-N-(3-chlorophenyl)-2-oxoacetamide], the IC50 worked out at 202 nM. On to `COc1cc(NC(=O)C(=O)c2c3c(n(Cc4ccc(Cl)cc4)c2C)CCCC3)ccn1` [Compound I-18, 2-(1-(4-chlorobenzyl)-2-methyl-4,5,6,7-tetrahydro-1H-indol-3-yl)-N-(2-methoxypyridin-4-yl)-2-oxoacetamide], for which the IC50 was determined as 21 nM. Take `COc1cc(NC(=O)C(=O)c2c3c(n(Cc4ccc(Cl)cc4)c2C)CCC(C)(C)C3)ccn1` [Compound I-15, 2-(1-(4-chlorobenzyl)-2,5,5-trimethyl-4,5,6,7-tetrahydro-1H-indol-3-yl)-N-(2-methoxypyridin-4-yl)-2-oxoacetamide]: the IC50 worked out at 94 nM.

For `Cc1c(C(=O)C(=O)Nc2cccc(Cl)c2)c2ccsc2n1Cc1ccc(Cl)cc1` [Compound I-08, 2-(6-(4-chlorobenzyl)-5-methyl-6H-thieno[2,3-b]pyrrol-4-yl)-N-(3-chlorophenyl)-2-oxoacetamide], the IC50 worked out at 797 nM. Regarding `Cc1c(C(=O)C(=O)Nc2cccc(Cl)c2)c2c(n1Cc1ccc(Cl)cc1)CCCCC2` [Compound I-12, 2-(1-(4-chlorobenzyl)-2-methyl-1,4,5,6,7,8-hexahydrocyclohepta[b]pyrrol-3-yl)-N-(3-chlorophenyl)-2-oxoacetamide], the IC50 came out at 234 nM.

`COc1cc(NC(=O)C(=O)c2cc(C)n(Cc3ccc(Cl)cc3Cl)c2C)ccn1` [Compound I-21, 2-(1-(2,4-dichlorobenzyl)-2,5-dimethyl-1H-pyrrol-3-yl)-N-(2-methoxypyridin-4-yl)-2-oxoacetamide]: the IC50 turned out to be 1010 nM. As to `Cc1c(C(=O)C(=O)Nc2cccc(Cl)c2)c(-c2ccccc2)c(C)n1Cc1ccc(Cl)cc1` [Compound I-20, 2-(1-(4-chlorobenzyl)-2,5-dimethyl-4-phenyl-1H-pyrrol-3-yl)-N-(3-chlorophenyl)-2-oxoacetamide], the IC50 was more than 5000 nM. In the case of `COc1cc(NC(=O)C(=O)c2c3c(n(Cc4ccc(Cl)cc4)c2C)CCCCCC3)ccn1` [Compound I-11, 2-(1-(4-chlorobenzyl)-2-methyl-4,5,6,7,8,9-hexahydro-1H-cycloocta[b]pyrrol-3-yl)-N-(2-methoxypyridin-4-yl)-2-oxoacetamide], the IC50 came out at 80 nM.

In the case of `COc1cc(NC(=O)C(=O)c2c3c(n(Cc4ccc(Cl)cc4)c2C)CCCCC3)ccn1` [Compound I-13, 2-(1-(4-chlorobenzyl)-2-methyl-1,4,5,6,7,8-hexahydrocyclohepta[b]pyrrol-3-yl)-N-(2-methoxypyridin-4-yl)-2-oxoacetamide], the IC50 came out at 9 nM. As to `Cc1cc(C(=O)C(=O)Nc2cccc(Cl)c2)c(-c2ccccc2)n1Cc1ccc(Cl)cc1` [Compound I-24, 2-(1-(4-chlorobenzyl)-5-methyl-2-phenyl-1H-pyrrol-3-yl)-N-(3-chlorophenyl)-2-oxoacetamide], the IC50 is more than 50000 nM. `Cc1c(C(=O)C(=O)Nc2cccc(Cl)c2)c2c(n1Cc1ccc(Cl)cc1)CCCCCC2` [Compound I-10, 2-(1-(4-chlorobenzyl)-2-methyl-4,5,6,7,8,9-hexahydro-1H-cycloocta[b]pyrrol-3-yl)-N-(3-chlorophenyl)-2-oxoacetamide]: the IC50 worked out at 605 nM. With `COc1cc(NC(=O)C(=O)c2cc(C)n(Cc3ccc(Cl)cc3)c2-c2ccccc2)ccn1` [Compound I-23, 2-(1-(4-chlorobenzyl)-5-methyl-2-phenyl-1H-pyrrol-3-yl)-N-(2-methoxypyridin-4-yl)-2-oxoacetamide] the figure was 2560 nM; with `Cc1c(C(=O)C(=O)Nc2ccncc2)cc(-c2ccccc2)n1Cc1ccc(Cl)cc1` [Compound I-26, 2-(1-(4-chlorobenzyl)-2-methyl-5-phenyl-1H-pyrrol-3-yl)-2-oxo-N-(pyridin-4-yl)acetamide], more than 50000 nM. With `COc1cc(NC(=O)C(=O)c2c(-c3ccccc3)c(C)n(Cc3ccc(Cl)cc3)c2C)ccn1` [Compound I-19, 2-(1-(4-chlorobenzyl)-2,5-dimethyl-4-phenyl-1H-pyrrol-3-yl)-N-(2-methoxypyridin-4-yl)-2-oxoacetamide] the figure was more than 5000 nM. In the case of `Cc1c(C(=O)C(=O)Nc2cccc(Cl)c2)c2c(n1Cc1ccc(Cl)cc1)CCCC2` [Compound I-16, 2-(1-(4-chlorobenzyl)-2-methyl-4,5,6,7-tetrahydro-1H-indol-3-yl)-N-(3-chlorophenyl)-2-oxoacetamide], the concentration for half-maximal inhibition (IC50) amounted to 119 nM. For `Cc1c(C(=O)C(=O)Nc2cccc(Cl)c2)cc(-c2ccccc2)n1Cc1ccc(Cl)cc1` [Compound I-25, 2-(1-(4-chlorobenzyl)-2-methyl-5-phenyl-1H-pyrrol-3-yl)-N-(3-chlorophenyl)-2-oxoacetamide], the IC50 is more than 50000 nM.
